Where “and” joins values, the source holds several entries; their conditions need not be identical. Equal entries are not always repeated.
What was measured:
[1] = tested on: hepatic steatosis induced by MCD diet; assay: Histological examination (H&E stain) of liver of MCD diet mice; assay type: in vivo, Male C57BL/6 mice; conditions: for effect on MCD diet-induced steatohepatitis (H&E staining), in words / Steatosis / Ballooning / Fibrosis / Inflammation / Scores: MCD diet mice; for effect on MCD diet-induced steatohepatitis (H&E staining), in words / Avg / Ballooning / Fibrosis / Inflammation / Sum / Scores: 100 mg/kg oral; for Avg: average of Scores of the group; for Avg / Ballooning / Fibrosis / Inflammation / Sum / Scores: PG/TPSG (1:1); for Steatosis / Ballooning / Fibrosis / Inflammation: score per animal; for Steatosis: 100 mg/kg oral once daily, 5 times a week, in PG/TPSG (1:1); for Sum: sum of Scores of the 4 animals of the group; for Scores: total score per animal
Protocol: (§1) Animals and experimental protocol: Male C57BL/6 mice, 4 weeks of age, were purchased from Laboratory Animal Center (Taiwan, China) were maintained under the procedures and guidelines provided by the Institutional Animal Care and Use Committee of the Health Research Institutes (Taiwan, China). They were maintained with free access to pellet food and water in stainless-steel cages at a temperature of 21±2° C. with a 12 h light/dark cycle.
(§2) Mice were randomly divided into five groups and treated as follows: (1) MCD diet+PG/TPSG (2) MCD diet+100 mg/kg all compounds. After 28 days, animals were sacrificed for the collection of blood for determination of plasma ALT and AST concentrations, and liver samples for H&E stain.
(§3) After 28 days, animals were sacrificed for the collection of blood for determination of plasma ALT and AST concentrations, and liver samples for H&E stain.

MCD diet NASH mice = assay: Serum AST and ALT of compounds treated-NASH mice (MCD diet); assay type: in vivo, Male C57BL/6 mice; conditions: MCD diet mice; for Serum ALT (U/L) / Serum AST (U/L): 100 mg/kg oral, PG/TPSG (1:1); for effect on serum concentrations of AST and ALT, in words: 100 mg/kg oral (Table 2)
Protocol: as §1, §2, §3

SMILES | effect on MCD diet-induced steatohepatitis (H&E staining), in words [1] | Avg [1] | Steatosis ([1]; hydrochloride, 100 mg/kg) | Ballooning [1] | Fibrosis [1] | Inflammation [1] | Sum [1] | Scores ([1]; hydrochloride, 100 mg/kg) | Serum ALT (U/L) (MCD diet NASH mice) | Serum AST (U/L) (MCD diet NASH mice) | Steatosis [1] | Inflammation ([1]; hydrochloride, 100 mg/kg) | effect on serum concentrations of AST and ALT, in words (MCD diet NASH mice) | Ballooning ([1]; hydrochloride, 100 mg/kg)
COc1cc(/C=C/c2ccc(OC(=O)OCCNC(=O)C(N)Cc3ccccc3)cc2)cc(OC)c1.Cl (centres unmarked) [Compound 5j, (E)-2-(2-amino-3-phenylpropanamido)ethyl (4-(3,5-dimethoxystyryl)phenyl) carbonate hydrochloride] | prevented MCD diet-induced steatohepatitis | 7.75 | 3 (3×) and 2 | 2 | 0 | 3 | 31 | 8 (3×) and 7 | 299.00 | 598.00 | – | – | – | –
COc1cc(/C=C/c2ccc(OC(=O)NCCNC(=O)C(N)Cc3ccccc3)cc2)cc(OC)c1.Cl (centres unmarked) [Compound 7e, (E)-4-(3,5-dimethoxystyryl)phenyl (2-(2-amino-3-phenylpropanamido)ethyl) carbamate hydrochloride] | prevented MCD diet-induced steatohepatitis | 7.75 | – | 2 | 0 | – | 31 | 8 (3×) and 7 | 286.75 | 477.00 | 3 | 3 (3×) and 2 | – | –
COc1cc(/C=C/c2ccc(OC(=O)OCCNC(=O)C(N)CC(N)=O)cc2)cc(OC)c1.Cl (centres unmarked) [Compound 5p, (E)-2-(2,4-diamino-4-oxobutanamido)ethyl (4-(3,5-dimethoxystyryl)phenyl) carbonate hydrochloride] | prevented MCD diet-induced steatohepatitis | 7.75 | 3 (3×) and 2 | 2 | 0 | 3 | 31 | 8 (3×) and 7 | 288.50 | 327.00 | – | – | significantly inhibited the serum concentrations of AST and ALT | –
COc1cc(/C=C/c2ccc(OC(=O)OCCNC(=O)C(N)CC(C)C)cc2)cc(OC)c1.Cl (centres unmarked) [Compound 5d, (E)-2-(2-amino-4-methylpentanamido)ethyl (4-(3,5-dimethoxystyryl)phenyl) carbonate hydrochloride] | prevented MCD diet-induced steatohepatitis | 7.75 | 3 (3×) and 2 | 2 | 0 | 3 | 31 | 8 (3×) and 7 | 196.13 | 392.25 | – | – | significantly inhibited the serum concentrations of AST and ALT | –
COc1cc(/C=C/c2ccc(OC(=O)OCCNC(=O)C(N)C(C)C)c(OC)c2)cc(OC)c1.Cl (centres unmarked) [Compound 6g, (E)-2-(2-amino-3-methylbutanamido)ethyl (4-(3,5-dimethoxystyryl)-2-methoxyphenyl) carbonate hydrochloride] | prevented MCD diet-induced steatohepatitis | 7.75 | 3 (3×) and 2 | 2 | 0 | 3 | 31 | 8 (3×) and 7 | 260.75 | 455.25 | – | – | – | –
COc1cc(/C=C/c2ccc(OC(=O)OCCNC(=O)C(N)CO)cc2)cc(OC)c1.Cl (centres unmarked) [Compound 5g, (E)-2-(2-amino-3-hydroxypropanamido)ethyl (4-(3,5-dimethoxystyryl)phenyl) carbonate hydrochloride] | prevented MCD diet-induced steatohepatitis | 6.5 | 3 (2×) and 2 (2×) | – | 0 | – | 26 | 8 (2×) and 5 (2×) | 222.13 | 444.25 | – | 3 (2×) and 2 (2×) | – | 2 (2×) and 1 (2×)

Source: patent publication US12466784B2, “Analogs of pterostilbene amino acid bearing carbonates for treating a non-alcoholic fatty liver disease and nonalcoholic steatohepatitis” (APICAL MOLECULAR BIOTECH CO., LTD., priority 2020, dated 2025)
